Assay results published in US7008961B1, “Composition and method for treating carcinoma” (priority 1995, dated 2006).
Read-outs that look alike come from different tables or passages of the source.

Key:
[1] = test system: PC-3 prostate cancer cells; test: Clonogenic assay (colony growth), PC-3; format: cell-based, human
Description: (§1) Assays of Rh-123 toxicity were done with three human prostate cancer cell lines, […], et al.: Establishment and characterization of a human prostatic carcinoma cell line, Invest Urol 17:16-23, 1979), DU-145 (Stone […], et al.: Isolation of a human prostatic carcinoma cell line (DU145), Int J Cancer 21:274-281, 1978), and LNCaP (Horoszewitz J, Leong […], et al.: LNCaP model of human prostatic carcinoma, Cancer Res 43:1809-1818, 1983), and a non-tumorigenic diploid prostate fibroblast cell strain (NPF-209) derived in our laboratories from a normal adult prostate. The NPF cells were used as controls, i.e., for comparison. […] Two different in vitro assays were used to assess cell viability following Rh-123 treatment, namely, • i) colony formation by a clonal assay procedure ([…], Ham R G: Clonal growth of human keratinocytes with small amounts of dialyzed serum, In Vitro 16:526-538, 1980); and • ii) viability of cells determined by the MTT assay utilizing previously described techniques (Alley […], Monks A, et al.: Feasibility of drug screening with panels of human tumor cell lines using a microculture tetrazolium assay, Cancer Res 40:589-601, 1988). Clonogenic potential of the treated human prostate cancer cells was determined on 24-hour-old cells seeded in 60 mm disposable dishes (1-2×10^2 cells/dish). […]

[2] = test system: transplantable rat prostate tumor R3327-H (Dunning); settings: saline suspension, s.c. every other day, 15 mg/kg body weight; cited from earlier work
[3] = test system: PC-3 prostate cancer cells; test: MTT cytotoxicity/viability assay, PC-3; format: cell-based, human
Description: as §1, with “comparison. The cells were maintained in disposable plastic culture vessels in a 1:1 mix of Dulbecco's modified Eagle's medium and Ham's F12 (DMEM/F12, from Sigma Chemical Co, St. Louis, Mo.) supplemented with 10% fetal bovine serum (FBS, from HyClone Labs, Inc., Logan, Utah). 3-[4,5-Dimethylthiazol-2-yl]-2,5-diphenyltetrazolium bromide (MTT), DMSO, and other chemicals were also obtained from Sigma.” for “comparison.”, “Cytotoxicity due to Rh-123 treatment was determined with” for “Clonogenic potential of”, “the” for “the treated”, “grown in 96-well disposable microtiter plates. […] The plates were next read at A540 […] with an Emax precision microplate reader (Molecular Devices Corporation, Menlo Park, Calif.). […] The cell-bound dye is dissolved with DMSO and spectrophotometrically quantitated by absorbance at a wavelength of 540 nm. The OD540 nm reading is a measure of the number of viable” for “was determined on 24-hour-old”, “present” for “seeded”, “the test sample.” for “60 mm disposable dishes (1-2×10^2 cells/dish).”

[4] = test system: metastatic hormone-refractory prostate cancer; test: Phase I study: prostate specific acid phosphatase in blood after a single dose; format: in vivo, human; settings: Patient 4, Level II (24 mg/m^2), single infusion
Experimental: The FDA has approved human clinical Phase I study of Rh-123. This phase evaluates the toxicity of Rh-123. The objective of the study is to determine safe dosing levels for Rh-123 starting at a level known to be safe for animals (about 0.3 mg/kg, which is equivalent to about 12 mg/m^2 for the typical prostate cancer patent), and proceeding upward in dosage until signs of moderate toxicity are observed. The Phase I study includes 21 volunteer patients with metastatic hormone-refractory prostate cancer to establish toxicity in a single dose escalation schedule. Only one dose per volunteer participant has been approved to date by the FDA, starting at 12 mg/m^2 at level I (three participants per level), and increasing in subsequent levels until dose-limiting toxicity is observed. Using a solution of four milligrams of Rh-123 per milliliter of a solution which includes 5% alcohol and 5% glucose in distilled water, the FDA has approved the dose escalation schedule shown in Table I: [table] As of the date of this application for patent, seven patients have been treated in accordance with the protocol described above.

[5] = test system: normal human adult prostate fibroblasts (NPF); test: Clonogenic assay (colony growth), NPF; format: cell-based
Description: as §1

Swiss Webster mice = format: in vivo; settings: s.c. every other day for 2 weeks
Experimental: The toxicity of two solvents for Rh-123, DMSO and alcohol-glucose, was studied in 60-day-old Swiss Webster mice (Simonsen Laboratories, Inc., Gilroy, Calif.). For each solvent there were five groups of five mice each, with the Rh-123 dose per group being 0, 2.0, 7.5, 15, and 20 mg/kg of body weight. A sixth group of five mice were not given any solvent or Rh-123. The solvents, with and without Rh-123, were administered at a concentration of 50% by volume DMSO in distilled water, and 5% alcohol by volume in a 5% by weight solution of glucose in distilled water. […] The concentration of Rh-123 was 5 mg/ml. Appropriate controls were utilized. The mice were injected subcutaneously every other day for 2 weeks.

[6] = test system: DU-145 prostate cancer cells; test: MTT cytotoxicity/viability assay, DU-145; format: cell-based, human
Description: as §1, with “comparison. The cells were maintained in disposable plastic culture vessels in a 1:1 mix of Dulbecco's modified Eagle's medium and Ham's F12 (DMEM/F12, from Sigma Chemical Co, St. Louis, Mo.) supplemented with 10% fetal bovine serum (FBS, from HyClone Labs, Inc., Logan, Utah). 3-[4,5-Dimethylthiazol-2-yl]-2,5-diphenyltetrazolium bromide (MTT), DMSO, and other chemicals were also obtained from Sigma.” for “comparison.”, “Cytotoxicity due to Rh-123 treatment was determined with” for “Clonogenic potential of”, “the” for “the treated”, “grown in 96-well disposable microtiter plates. […] The plates were next read at A540 […] with an Emax precision microplate reader (Molecular Devices Corporation, Menlo Park, Calif.). […] The cell-bound dye is dissolved with DMSO and spectrophotometrically quantitated by absorbance at a wavelength of 540 nm. The OD540 nm reading is a measure of the number of viable” for “was determined on 24-hour-old”, “present” for “seeded”, “the test sample.” for “60 mm disposable dishes (1-2×10^2 cells/dish).”

[7] = test system: DU-145 prostate cancer cells; test: Clonogenic assay (colony growth), DU-145; format: cell-based, human
Description: as §1

[8] = test system: transplantable tumor P-A III; settings: cited from earlier work
[9] = test system: LNCaP prostate cancer cells; test: MTT cytotoxicity/viability assay, LNCaP; format: cell-based, human
Description: as §1, with “Cytotoxicity due to Rh-123 treatment was determined with” for “Clonogenic potential of”, “the” for “the treated”, “grown in 96-well disposable microtiter plates. […] The OD540 nm reading is a measure of the number of viable” for “was determined on 24-hour-old”, “present” for “seeded”, “the test sample.” for “60 mm disposable dishes (1-2×10^2 cells/dish).”

[10] = test system: NPF non-tumorigenic diploid prostate fibroblast cells; test: MTT cytotoxicity/viability assay, NPF; format: cell-based, human
Description: as §1, with “Cytotoxicity due to Rh-123 treatment was determined with” for “Clonogenic potential of”, “the” for “the treated”, “grown in 96-well disposable microtiter plates. […] The OD540 nm reading is a measure of the number of viable” for “was determined on 24-hour-old”, “present” for “seeded”, “the test sample.” for “60 mm disposable dishes (1-2×10^2 cells/dish).”

[11] = test system: LNCaP prostate cancer cells; test: Clonogenic assay (colony growth), LNCaP; format: cell-based, human
Description: as §1

[12] = test system: autochthonous rat prostate complex adenocarcinoma (ARPCA); test: Induced autochthonous rat prostate adenocarcinoma in L-W rats; format: in vivo; settings: 15 mg/kg BW s.c. every other day for six doses
Experimental: To determine the effectiveness of Rh-123 on induced autochthonous rat prostate adenocarcinoma developed within the prostate gland and seminal vesicles of L-W rats, thirteen L-W rats were inoculated intravenously with acidified MNU (30 mg/kg of body weight (BW)). Following the single inoculation of MNU, the rats were each implanted subcutaneously with 50 mg TP sealed in a silastic tube. Three implants of TP were administered, each at intervals of 2 months. After a latent period of 4–6 months, small palpable tumors were detected in the abdomen. The rats were then administered Rh-123 (15 mg/kg BW) subcutaneously every other day for six doses. The Rh-123 was dissolved in a 5% (by volume) ethanol-5% (by weight) glucose solution in sterile water at a concentration of 5 mg/ml. The rats were sacrificed 1 week after the last dose of Rh-123 and their tissues were fixed in 10% formalin.

In the case of `COC(=O)c1ccccc1-c1c2ccc(=N)cc-2oc2cc(N)ccc12.Cl` [Rh-123, methyl o-(6-amino-3-imino-3H-xanthen-9-yl) benzoate monohydrochloride], the “suppression of colony growth” value ([1]; PC-3, 10 μg/ml for 72 hours) is listed as “Complete suppression”, the colony growth ([1]; PC-3, exposure to 10 μg/ml) is listed as “greatly suppressed” and the “effect on tumor (histology)” value [2] is listed as “significant destructive alteration of the acinar cells”. For the same compound, the “recovery of treated cells in Rh-123-free normal growth medium” value ([3]; PC-3) was “poor”, the “relative sensitivity to Rh-123 exposure among the cancer cell lines” value ([3]; PC-3) was “most sensitive” and the “loss of viable cells” value ([3]; PC-3, exposed 2 days or longer, concentrations as low as 1.25–2 μg/ml) was “marked”. For the same compound, the “course of prostate specific acid phosphatase in blood after 48 hours” value [4] was “steadily decreased until two months after the infusion”, the “maximal suppression of colony growth” value ([5]; 72-hour exposure) was 28 % of control and the “suppression of colony growth” value ([5]; 72-hour exposure to 50 μg/ml (data not shown)) was “Total suppression was not achieved”. For the same compound, the mortality (Swiss Webster mice; 15 mg/kg Rh-123 in 50% DMSO, group of five mice) was “one of five mice died”, the mortality (Swiss Webster mice; 20 mg/kg Rh-123 in 50% DMSO, group of five mice) was “Three of five mice died” and the mortality (Swiss Webster mice; 20 mg/kg Rh-123 in alcohol-glucose solution) was “no mortality”. The “recovery of treated cells in Rh-123-free normal growth medium” value ([6]; DU-145) was “poor”, the “relative sensitivity to Rh-123 exposure among the cancer cell lines” value ([6]; DU-145) was “more refractory than either the PC-3 or the LNCaP cells” and the “loss of viable cells” value ([6]; DU-145, exposed 2 days or longer, concentrations as low as 1.25–2 μg/ml) was “marked”. For the same compound, the “suppression of colony growth” value ([7]; DU-145, 10 μg/ml for 72 hours) was “Complete suppression”, the “growth suppression (colony growth)” value ([7]; DU-145, compared with PC-3 and LNCaP) was “less marked” and the “effect on tumor cells” value ([8]; Rh-123 dissolved in DMSO) was “significant destruction of tumor cells”. For the same compound, the “sensitivity of tumor to Rh-123” value ([8]; Rh-123 dissolved in DMSO) was “highly sensitive”, the “toxicity in normal cells” value ([8]; rat, in vivo) was “no toxicity noted” and the “tumor growth after injection of tumor remnants into untreated susceptible L-W rats” value ([8]; remnants of Rh-123-treated tumor) was “no tumor growth”. For the same compound, the “recovery of treated cells in Rh-123-free normal growth medium” value [9] was “poor”, the “loss of viable cells” value ([9]; exposed 2 days or longer, concentrations as low as 1.25–2 μg/ml) was “marked” and the “growth inhibition due to Rh-123 treatment” value ([10]; 0–80 μg/ml, FIG. 5) was “much less than that observed with tumorigenic cells”. The viability of cells ([10]; after prolonged Rh-123 exposures) was “remained relatively high”, the “suppression of colony growth” value ([11]; 10 μg/ml for 72 hours) was “Complete suppression” and the colony growth ([11]; exposure to 10 μg/ml) was “greatly suppressed”. For the same compound, the “effect on normal surrounding tissue” value [12] was “no change”, the “gross changes in the tumor mass of the prostate complex” value [12] was “No gross changes” and the “microscopic examination of tumor tissue of prostate complex” value ([12]; sacrificed 1 week after last dose) was “marked cellular and acinar destruction, pyknosis, cytoplasmic smearing, and intraepithelial cyst formation”.
